Source: ChEMBL document CHEMBL4425170, “Novel Series of Potent Glucokinase Activators Leading to the Discovery of AM-2394” (ACS Med Chem Lett, 2016)
≈ marks a conversion by molar mass, not a printed value. Blank lines part the entries; values can stand above or below the molecule they belong to.

Experiments:
physchem = conditions: SIF, pH 6.8
in vivo = conditions: mouse, po, 5 mg/kg
[1] = Cmax in mouse at 5 mg/kg, po; format: ADME, organism-based; design: dose 5 mg/kg, route oral; conditions: in vivo
[2] = Cmax in rat at 2 mg/kg, po; format: ADME, organism-based; design: dose 2 mg/kg, route oral; conditions: in vivo
[3] = Cmax in cynomolgus monkey at 2 mg/kg, po; format: ADME, organism-based, Macaca fascicularis; design: dose 2 mg/kg, route oral; conditions: in vivo
[4] = Cmax in dog at 2 mg/kg, po; format: ADME, organism-based, Canis lupus familiaris; design: dose 2 mg/kg, route oral; conditions: in vivo
[5] = Tmax in mouse at 5 mg/kg, po or 1 mg/kg, iv; format: ADME, organism-based; conditions: in vivo
[6] = Tmax in rat at 2 mg/kg, po or 0.5 mg/kg, iv; format: ADME, organism-based; conditions: in vivo
[7] = Tmax in cynomolgus monkey at 2 mg/kg, po or 0.5 mg/kg, iv; format: ADME, organism-based, Macaca fascicularis; conditions: in vivo
[8] = Tmax in dog at 2 mg/kg, po or 0.5 mg/kg, iv; format: ADME, organism-based, Canis lupus familiaris; conditions: in vivo
[9] = Clearance in mouse at 5 mg/kg, po or 1 mg/kg, iv; format: ADME, organism-based; conditions: in vivo
[10] = Clearance in rat at 2 mg/kg, po or 0.5 mg/kg, iv; format: ADME, organism-based; conditions: in vivo
[11] = Clearance in cynomolgus monkey at 2 mg/kg, po or 0.5 mg/kg, iv; format: ADME, organism-based, Macaca fascicularis; conditions: in vivo
[12] = Clearance in dog at 2 mg/kg, po or 0.5 mg/kg, iv; format: ADME, organism-based, Canis lupus familiaris; conditions: in vivo
[13] = Volume of distribution at steady state in mouse at 5 mg/kg, po or 1 mg/kg, iv; format: ADME, organism-based; conditions: in vivo, read-out: Vdss
[14] = Volume of distribution at steady state in rat at 2 mg/kg, po or 0.5 mg/kg, iv; format: ADME, organism-based; conditions: in vivo, read-out: Vdss
[15] = Volume of distribution at steady state in cynomolgus monkey at 2 mg/kg, po or 0.5 mg/kg, iv; format: ADME, organism-based, Macaca fascicularis; conditions: in vivo, read-out: Vdss
[16] = Volume of distribution at steady state in dog at 2 mg/kg, po or 0.5 mg/kg, iv; format: ADME, organism-based, Canis lupus familiaris; conditions: in vivo, read-out: Vdss
[17] = Half life in mouse at 1 mg/kg, iv; format: ADME, organism-based; conditions: in vivo
[18] = Half life in rat at 0.5 mg/kg, iv; format: ADME, organism-based; conditions: in vivo
[19] = Half life in cynomolgus monkey at 0.5 mg/kg, iv; format: ADME, organism-based, Macaca fascicularis; conditions: in vivo
[20] = Half life in dog at 0.5 mg/kg, iv; format: ADME, organism-based, Canis lupus familiaris; conditions: in vivo
[21] = Oral bioavailability in cynomolgus monkey at 2 mg/kg; format: ADME, organism-based, Macaca fascicularis; conditions: in vivo
[22] = Oral bioavailability in dog at 2 mg/kg; format: ADME, organism-based, Canis lupus familiaris; conditions: in vivo
[23] = Terminal plasma concentration in ob/ob mouse at 3 mg/kg, po administered 30 mins prior to testing by oral glucose tolerance test; format: ADME, organism-based; conditions: read-out: Cp(T)
[24] = Terminal plasma concentration in ob/ob mouse at 10 mg/kg, po administered 30 mins prior to testing by oral glucose tolerance test; format: ADME, organism-based; conditions: read-out: Cp(T)
[25] = Terminal plasma concentration in ob/ob mouse at 30 mg/kg, po administered 30 mins prior to testing by oral glucose tolerance test; format: ADME, organism-based; conditions: read-out: Cp(T)

solubility (physchem): 226 µM (≈ 92.5 µg/mL)
SMILES: CNC(=O)Nc1cc(Oc2cncc(C)c2)c(-c2ccc(OC[C@@H](C)O)nc2)cn1

SMILES: CNC(=O)Nc1cc(Oc2cncc(C)c2)c(-c2ccc(OCCO)nc2)cn1
bioavailability (in vivo): 6% | solubility (physchem): < 1 µM

solubility (physchem): 176 µM (≈ 72.1 µg/mL)
SMILES: CNC(=O)Nc1cc(Oc2cncc(C)c2)c(-c2ccc(OC[C@H](C)O)nc2)cn1

Cmax [1]: 350 nM | Cmax [2]: 490 nM | Cmax [3]: 1150 nM | Cmax [4]: 3520 nM | Tmax [5]: 0.33 h | Tmax [6]: 0.83 h | Tmax [7]: 1.67 h | Tmax [8]: 1.33 h | clearance [9]: 6.17 mL/min/kg | clearance [10]: 27.3 mL/min/kg | clearance [11]: 10 mL/min/kg | clearance [12]: 4.17 mL/min/kg | Vd [13]: 0.59 L/kg | Vd [14]: 2.18 L/kg | Vd [15]: 2.29 L/kg | Vd [16]: 1.49 L/kg | half-life [17]: 2 h | half-life [18]: 1.4 h | half-life [19]: 6.7 h | half-life [20]: 6.5 h | bioavailability [21]: 70% | bioavailability [22]: 99% | bioavailability (in vivo): 25% | solubility (physchem): 46 µM (≈ 19.5 µg/mL)
SMILES: CNC(=O)Nc1cc(Oc2cncc(C)c2)c(-c2ccc(OCC(C)(C)O)nc2)cn1
concentration at 0.5 h [23]: 1200 nM | concentration at 0.5 h [24]: 3600 nM | concentration at 0.5 h [25]: 38000 nM
